Results from patent US20110009342A1, “USES OF PDCD5 POLYPEPTIDE FOR TUMOR CHEMOTHERAPY AND ORGAN PROTECTION” (priority 2008, published 2011).

How the values were obtained:
mice hearts = test: HE staining of heart paraffin sections of treated K562 xenograft mice; assay type: in vivo, BALB/c nu/nu mice
Protocol: (§1) Methods: BALB/c nu/nu female mice (6-8 weeks of age) were injected intraperitoneally with cyclophosphamide (CTX) (Jiangsu Hengrui Medicine Co., Ltd.), 2 mg/day per mouse for two days. One day after the second cyclophosphamide injection, 1.5×10^7 of K562 cells were injected subcutaneously into the single armpit of each of the mice. The mice bearing K562 cell xenografts were divided randomly into nine groups (n=6, i.e., six mice in each group) and each of the mice was i.p. treated, respectively, with normal saline, PDCD5, IDR (Sigma Corporation), and IDR plus PDCD5. […] At the end of the experiment, mice were killed. The mice were the same batch of that of Example 6. The excised hearts of mice after treatment were fixed in 10% neutrally buffered formalin and then embedded in paraffin after dehydration. The paraffin embedding was cut and paraffin sections after HE staining were used to observe the myocardial congestion, hemorrhage, and myofiber degeneration of heart in mice.

K562 cells [1] = test: FITC/Annexin-V apoptosis by flow cytometry, IDR; assay type: cell-based; details: IDR 56 ng/mL; PDCD5 30 μg/mL where combined; 24 hours
Protocol: Methods: Cell staining with FITC/Annexin-V and cell apoptosis in vitro detection by flow cytometry: K562 cells (ATCC) were maintained in RPMI 1640 (Life Technologies, USA) supplemented with 10% FBS (Hyclone, USA), and were plated in 24-well culture dishes to a density of 2×10^5 cells/mL. rhPDCD5 protein was added with a final concentration of 7.5 μg/mL, 15 μg/mL and 30 μg/mL, respectively, in each well. Chemotherapeutic drug IDR was then added with a final concentration of 56 ng/mL and RPMI 1640 with 10% FBS was added to make the system to 1 mL. After 24 hours of co-culture, the cells were stained with FITC/Annexin-V (Baosai company) and apoptosis was detected by flow cytometry.

K562 cell xenografts = K562 cell xenografts in nude mice, IDR; assay type: in vivo, BALB/c nude mice; details: IDR 70 μg
Protocol: Methods: BALB/c nude female mice (6-8 weeks of age) were used, and the mice were pretreated by i.p. injections of cyclophosphamide (Jiangsu Hengrui Medicine Co., Ltd.) once daily at a dose of 2 mg per mouse for two consecutive days. After two days of the cyclophosphamide injection, 1.5×10^7 K562 cells were injected subcutaneously into the single flanks of the mouse. The mice bearing K562 cell xenografts were divided randomly into five groups: Normal saline, irrelevant protein, rhPDCD5, IDR (idarubicin, Sigma Company), and IDR plus rhPDCD5. IDR treatments were given every other day i.p. The longest diameter and shortest diameter of tumors were measured by vernier caliper at the beginning of treatment and during the treatment. […] At the end of the experiment, the mice were killed and tumor masses were dissected and then weighed. […] Tumor volume was calculated using the following formula: πls^2/6, where 1=long diameter and s=short diameter.

mouse bone marrow = test: HE staining of bone marrow paraffin sections of treated K562 xenograft mice; assay type: in vivo, BALB/c nu/nu mice; details: combination compared with IDR alone
Protocol: Methods: Cyclophosphamide (CTX) (Jiangsu Hengrui Medicine Co., Ltd.) was used for intraperitoneal injection in BALB/c nu/nu female mice (6-8 weeks of age) and injection lasted for two days. One day after the second cyclophosphamide injection, 1.5×10^7 of K562 cells were injected subcutaneously into the single armpit of the mice. The mice bearing K562 cell xenografts were divided randomly into nine groups (n=6, i.e., six mice in each group) and i.p. treated with normal saline, PDCD5, IDR (Sigma Corporation), and IDR plus PDCD5. Normal saline, PDCD5 (200 μg, 400 μg, or 800 μg, i.e., 10 mg/kg, 20 mg/kg, or 40 mg/kg), […]., 1.25 mg/kg) and […]., 1.25 mg/kg) plus PDCD5 (200 μg, 400 μg, or 800 μg, i.e., 10 mg/kg, 20 mg/kg, or 40 mg/kg) were used for intraperitoneal injection and were given every other day for a total of five treatments. […] At the end of the experiment, mice were killed. The mice were the same batch of that in Example 6. The excised bone of mice after treatment were fixed in 10% neutrally buffered formalin and then embedded in paraffin after dehydration. The paraffin embedding was cut and paraffin sections after HE staining were used to count the number of nucleated cells of each group in mouse bone marrow paraffin sections.

K562 cells [2] = test: clonogenic assay of agarose, IDR; assay type: cell-based; details: Homo sapiens, K562, 336 h; IDR 35 ng/mL; PDCD5 15-60 μg/mL where combined; 14 days; read-out: rate of clonogenic inhibition
Protocol: Clonogenic assay of agarose: Cell concentration was adjusted to 2.5×10^5 cell/mL. NS (control group) was prepared by taking 0.01 mL single-cell suspension, 0.5 mL 1% agarose, and 0.5 mL 2×RPMI 1640 medium containing 20% FCS, to bring the culture system to 1.0 mL. Test groups were prepared by taking 0.01 mL single-cell suspension and 0.5 mL 1% agarose, and taking IDR and PDCD5 diluted with 2×RPMI 1640 medium containing 20% FCS to an appropriated volume (having a final concentration of 35 ng/mL for IDR, and a final concentration of 15 μg/mL, 30 μg/mL, or 60 μg/mL for PDCD5 in each respective test group) and further diluted by adding 2×RPMI 1640 medium containing 20% FCS to 0.5 mL, and bringing the culture system to 1.0 mL. The culture system was added to 24-well plates, with 1 mL per well, and triplicate wells for each group. The plates were incubated in a CO2 incubator for 14 days until colonies formed. The clonogenic number was counted by microscope. A colony with more than 30 cells was counted as one positive colony.

mouse livers [3] = test: HE staining of liver paraffin sections of treated K562 xenograft mice; assay type: in vivo, BALB/c nu/nu mice
Protocol: as §1, with “excised liver” for “excised hearts”, “the necrosis of experimental mouse livers. Meanwhile, paraffin sections after Tunel (Roche Inc.) staining were used to observe the apoptosis of experimental mouse livers,” for “the myocardial congestion, hemorrhage,”, “and then the number” for “and myofiber degeneration”, “of apoptotic cells was counted” for “of heart”, “in five high-power microscope field for statistical analysis.” for “in mice.”

mouse livers [4] = test: Tunel staining of liver paraffin sections of treated K562 xenograft mice; assay type: in vivo, BALB/c nu/nu mice; details: five high power microscope fields
Protocol: Methods: BALB/c nu/nu female mice (6-8 weeks of age) were injected intraperitoneally with cyclophosphamide (CTX) (Jiangsu Hengrui Medicine Co., Ltd.), 2 mg/day per mouse for two days. One day after the second cyclophosphamide injection, 1.5×10^7 of K562 cells were injected subcutaneously into the single armpit of each of the mice. The mice bearing K562 cell xenografts were divided randomly into nine groups (n=6, i.e., six mice in each group) and each of the mice was i.p. treated, respectively, with normal saline, PDCD5, IDR (Sigma Corporation), and IDR plus PDCD5. Normal saline, PDCD5 (200 μg, 400 μg, or 800 μg, i.e., 10 mg/kg, 20 mg/kg, or 40 mg/kg, respectively), IDR (25 μg, i.e., 1.25 mg/kg) and IDR (25 μg, i.e., 1.25 mg/kg) plus PDCD5 (200 μg, 400 μg, or 800 μg, i.e., 10 mg/kg, 20 mg/kg, or 40 mg/kg, respectively) were used for intraperitoneal injection every other day for a total of five treatments. […] At the end of the experiment, mice were killed.
The excised liver of mice after treatment were fixed in 10% neutrally buffered formalin and then embedded in paraffin after dehydration. […] Meanwhile, paraffin sections after Tunel (Roche Inc.) staining were used to observe the apoptosis of experimental mouse livers, and then the number of apoptotic cells was counted in five high-power microscope field for statistical analysis.

[5] = no PDCD5, Imatinib 1.2 mg oral or IDR 25 μg i.p., n=6

- myocardial hemorrhage and congestion, and myofiber fracture/degeneration (in words) (mice hearts; HE staining): significant
- Myocardial hemorrhage and congestion: mice graded + (mice hearts; [5]): 3 number of mice
- Myocardial hemorrhage and congestion: mice graded ++ (mice hearts; [5]): 3 number of mice
- Myocardial hemorrhage and congestion: mice graded − (mice hearts; [5]): 0 number of mice
- Myofiber degeneration: mice graded + (mice hearts; [5]): 3 number of mice
- Myofiber degeneration: mice graded − (mice hearts; [5]): 3 number of mice
- number of mouse bone marrow nucleated cells (mouse bone marrow): decreased
Structure (SMILES): CC(=O)[C@]1(O)Cc2c(O)c3c(c(O)c2[C@@H](O[C@H]2C[C@H](N)[C@H](O)[C@H](C)O2)C1)C(=O)c1ccccc1C3=O [IDR, idarubicin]
- cell apoptosis rate (K562 cells [1]): 22.57%
- tumor inhibitory rate (K562 cell xenografts; PDCD5 local (intratumoral) injection, 60 μg where combined): 60.27%
- tumor inhibitory rate (K562 cell xenografts; treatment started at average tumor volume 57.7 mm^3, PDCD5 i.p. 800 μg where combined): 62.79%
- inhibition at 0.035 µg/mL (K562 cells [2]): 35.5%
- sinusoidal expansion, congestive hemorrhage and necrosis of liver cells surrounding sinusoid (in words) (mouse livers [3]; HE staining): significant
- Sinusoidal expansion, congestive hemorrhage and necrosis of liver cells surrounding sinusoid: mice graded + (mouse livers [3]; [5]): 3 number of mice
- Sinusoidal expansion, congestive hemorrhage and necrosis of liver cells surrounding sinusoid: mice graded ++ (mouse livers [3]; [5]): 3 number of mice
- Sinusoidal expansion, congestive hemorrhage and necrosis of liver cells surrounding sinusoid: mice graded +/− (mouse livers [3]; [5]): 0 number of mice
- Sinusoidal expansion, congestive hemorrhage and necrosis of liver cells surrounding sinusoid: mice graded − (mouse livers [3]; [5]): 0 number of mice
- number of apoptotic cells in mice liver, IDR alone vs IDR combined with PDCD5 (mouse livers [4]): significantly higher
